We go through 2 compounds from US11547681B2, “N-acylethanolamide derivatives and uses thereof” (ELIEM THERAPEUTICS, INC., priority 2016, dated 2023).

Data set [1] in a line: Simulated intestinal fluid stability, SIF containing pancreatin. The data set is classed as in vitro ADME. The settings on record: for % Remaining of Initial (n = 1): 1 μM; for Measured Concentration of Drug: test article dosed at 1 μM. The procedure: (§1) Studies were carried out in simulated intestinal fluid containing pancreatin. Simulated intestinal fluid was prepared by dissolving 6.8 g of monobasic potassium phosphate in 1.0 L of water. Pancreatin was then added to the solution and the pH was adjusted to 6.8. A DMSO stock was first prepared for the test articles. Aliquots of the DMSO solution were dosed into 300 μL of matrix, which had been pre-warmed to 37° C., at a final test article concentration of 1 μM. An individual tube was dosed for each time point. At each time point (0, 15, 30, 60, and 120 minutes), 900 μL of ice-cold acetonitrile containing 1.0% formic acid was added to an individual tube. Starting time for each tube was staggered such that all timepoints would finish at the same time. After the conclusion of the experiment, tubes were mixed and then centrifuged at 3,000 rpm for 10 minutes. Calibration standards were prepared in matched matrix. […] Analytical conditions are outlined in Appendix 11-1.
as §1, with “prepared for test articles.” for “prepared for the test articles.”, “Aliquots of DMSO solution” for “Aliquots of the DMSO solution”, “individual tube. The starting time for” for “individual tube. Starting time for”, “that all time points would finish” for “that all timepoints would finish”, “in Appendix 14-1.” for “in Appendix 11-1.”

For data set [2] the following is noted: male, Sprague-Dawley, rat, in vivo, po.
Data set [3] can be described thus: Summary of half life data (Table A), matrix not stated. The format is in vitro ADME.
The next data set is described as follows: in vivo. The conditions noted are these: male, Sprague-Dawley, rat, plasma, po, 10 mg/kg.
A further data set concerns patients with pain. The conditions noted are these: meta-analysis of 12 PEA pain studies; placebo 21%; cited from earlier work.
Data set [4] can be described thus: Pharmacokinetics of PEA after intravenous administration in male Sprague-Dawley rats. The data set is classed as in vivo, Sprague-Dawley rat. The settings on record: for AUC(0-t): AUClast; for MRT last: MRTlast. The procedure: Rats were housed one per cage. […] Each study group was dosing in triplicate.
Samples were maintained chilled throughout processing.
Clearance (CL) was calculated from dose/AUC.

Where [5] appears, read: male, Sprague-Dawley, rat, in vivo, iv, 1 mg/kg, Mean.
[6] abbreviates: male, Sprague-Dawley, rat, in vivo, iv, 1 mg/kg, individual rats.
Setting [7] is: male, Sprague-Dawley, rat, in vivo, iv, 1 mg/kg, Plasma concentration of PEA, Mean.
Setting [8] is: male, Sprague-Dawley, rat, in vivo, iv, 1 mg/kg, Plasma concentration of PEA, individual rats.

As to `CCCCCCCCCCCCCCCC(=O)NCCOC(=O)CCC(=O)OC[C@@H](COC(=O)CCC)OC(=O)CCC` [Compound I-15], the “% Remaining of Initial (n = 1)” value is on record as 100% in data set [1] (0 min); under 2.2% in data set [1] (15 min); under 2.2% in data set [1] (30 min); under 2.2% in data set [1] (60 min); under 2.2% in data set [1] (120 min). Also, the “Measured Concentration of Drug” value in data set [1] (0 min) is 0.18 µM; in data set [1] (15 min), 0 µM; in data set [1] (30 min) it was 0 µM; in data set [1] (60 min), 0 µM; in data set [1] (120 min), 0 µM. Besides, the Bioavailability in data set [2] stood at 3.42%. For the same compound, the half-life in data set [3] is under 1 min.

For the compound `CCCCCCCCCCCCCCCC(=O)NCCO` [PEA, palmitoylethanolamide], in the data set “in vivo”, the highest level (Cmax) was 0.0053 µg/mL, the Tmax worked out at 120 min, the concentration at 1 hr was determined as 0.00234 µg/mL and the concentration at 2 hr was found to be 0.0053 µg/mL. In addition, in the data set on patients with pain, the “treated patients achieving VAS scores <=3” value is recorded as 67%. In addition, the “C0, Mean” value in data set [4] (PEA IV 1 mg/kg, extrapolated to t = 0) is 0.251 µg/mL. Moreover, in data set [4] (male, Sprague-Dawley, rat, in vivo, iv, 1 mg/kg), the Tmax is 0 h. In data set [4] (setting [5]), this compound gave an AUC(0-t) of 0.0621 µg·h/mL, an AUC(0-inf) of 0.0684 µg·h/mL and an MRT last of 24.1 min. Further, in data set [4] (setting [6]), the AUC(0-t) is 0.0533 µg·h/mL, the AUC(0-inf) was 0.0576 µg·h/mL and the MRT last worked out at 23.9 min. In data set [4] (male, Sprague-Dawley, rat, in vivo, iv, 1 mg/kg, CL (average clearance rate), Mean), this compound had a clearance of 15.1 L/h/kg. This compound also gave a clearance in data set [4] (male, Sprague-Dawley, rat, in vivo, iv, 1 mg/kg, CL, individual rats) of 17.4 L/h/kg. Also, in data set [4] (setting [7]), the concentration at 0.083 hr worked out at 0.144 µg/mL, the concentration at 0.25 hr was found to be 0.0482 µg/mL, the concentration at 0.5 hr is 0.0312 µg/mL and the concentration at 1 hr was determined as 0.0112 µg/mL. In addition, the concentration at 2 hr in data set [4] (setting [7]) was determined as 0.00691 µg/mL. In data set [4] (setting [8]), this compound returned a concentration at 0.083 hr of 0.122 µg/mL, a concentration at 0.25 hr of 0.0472 µg/mL, a concentration at 0.5 hr of 0.0275 µg/mL and a concentration at 2 hr of 0.0052 µg/mL. The Vd in data set [4] (male, Sprague-Dawley, rat, in vivo, iv, 1 mg/kg, Vss (average volume of distribution), Mean) was found to be 9.12 ± 0.832 L/kg. Moreover, the Vd in data set [4] (male, Sprague-Dawley, rat, in vivo, iv, 1 mg/kg, Vss, individual rats) is 10 L/kg. In addition, the half-life in data set [4] (male, Sprague-Dawley, rat, in vivo, iv, 1 mg/kg, t1/2 (average half-life), Mean) was 35.8 ± 9.9 min. In data set [4] (male, Sprague-Dawley, rat, in vivo, iv, 1 mg/kg, t1/2, individual rats), this compound showed a half-life of 33.8 min.

In general, half-life refers to the time needed for the level to fall by half in the phase considered. The term Cmax denotes the maximum level reached in the sampled fluid or tissue. By Tmax is commonly meant the time from dosing to the highest level. What is called AUC(0-t) is the area under the concentration-time curve up to a stated or last time point. A lower AUC(0-t) goes with low exposure. As a reminder, the AUC(0-inf) is the area under the concentration-time curve extrapolated to infinity. A high value points to more exposure. Usually clearance stands for the rate of elimination divided by the concentration. A low value points to inefficient removal. A word on the MRT last: it is a mean duration of stay, worked out from the concentration-time curve. One may read the Vd as a proportionality between amount in the body and measured concentration, not a real space. High values mean wide distribution into tissue, low ones little distribution into tissue.
